In patent publication US8163728B2, “Pyrazoles” (Hoffmann-La Roche Inc., priority 2009, dated 2012) one finds Ki data, which are given here for 25 molecules.

Each structure is given as a SMILES string.

This assay addresses T1, GABA A α5 (Homo sapiens, UniProt P18507+P31644).
T1 construct: expressed in transfected cells; host or cells: HEK293 cells, transiently transfected; membranes prepared from cell pellets
In words: [3H]flumazenil competition binding, human GABA A α5β3γ2 receptors in HEK293 cell membranes. The settings on record: human receptor α5β3γ2 transiently transfected in HEK293; 0.5 nM [3H]flumazenil; 1 hour at 4° C.; means of two determinations; read-out: hKi GABA A α5. How it is done:
The affinity of compounds at GABA A receptor subtypes was measured by competition for [3H]flumazenil (85 Ci/mmol; Roche) binding to HEK293 cells expressing rat (stably transfected) or human (transiently transfected) receptors of composition α1β3γ2, α2β3γ2, α3β3γ2 and α5β3γ2.
Cell pellets were suspended in Krebs-tris buffer (4.8 mM KCl, 1.2 mM CaCl2, 1.2 mM MgCl2, 120 mM NaCl, 15 mM Tris; pH 7.5; binding assay buffer), homogenized by polytron for ca. 20 sec on ice and centrifuged for 60 min at 4° C. (50000 g; Sorvall, rotor: SM24=20000 rpm). The cell pellets were re-suspended in Krebs-tris buffer and homogenized by polytron for ca. 15 sec on ice. Protein was measured (Bradford method, Bio-Rad) and aliquots of 1 mL were prepared and stored at −80° C.
Assays were incubated to equilibrium for 1 hour at 4° C. and harvested onto GF/C uni-filters (Packard) by filtration using a Packard harvester and washing with ice-cold wash buffer (50 mM Tris; pH 7.5). After drying, filter-retained radioactivity was detected by liquid scintillation counting. Ki values were calculated using Excel-Fit (Microsoft) and are the means of two determinations.

For the molecule `Cn1nc(OCc2c(-c3ccc(F)cc3)noc2CO)cc1C(=O)NC1CCOCC1` [Example 91, 5-[3-(4-Fluoro-phenyl)-5-hydroxymethyl-isoxazol-4-ylmethoxy]-2-methyl-2H-pyrazole-3-carboxylic acid (tetrahydro-pyran-4-yl)-amide], the Ki was found to be 1 nM.

`Cc1onc(-c2ccccc2)c1COc1cc(C(=O)N2CCOCC2)[nH]n1` [Example 1, [5-(5-Methyl-3-phenyl-isoxazol-4-ylmethoxy)-2H-pyrazol-3-yl]morpholin-4-yl-methanone]: the Ki turned out to be 41.3 nM. The same measure for `CCCCc1noc(C)c1COc1cc(C(=O)NCCO)[nH]n1` [Example 33, 5-(3-Butyl-5-methyl-isoxazol-4-ylmethoxy)-2H-pyrazole-3-carboxylic acid (2-hydroxyethyl)-amide]: 20.2 nM; for `Cc1onc(-c2ccccn2)c1COc1cc(C(=O)NC2CCOCC2)nn1C` [Example 116, 1-Methyl-5-(5-methyl-3-pyridin-2-yl-isoxazol-4-ylmethoxy)-1H-pyrazole-3-carboxylic acid (tetrahydro-pyran-4-yl)-amide]: 18.2 nM. On to `CCCCc1noc(C)c1COc1cc(C(=O)N[C@@H](C)CO)[nH]n1` [Example 27, 5-(3-Butyl-5-methyl-isoxazol-4-ylmethoxy)-2H-pyrazole-3-carboxylic acid ((S)-2-hydroxy-1-methyl-ethyl)-amide], for which the Ki was determined as 7.8 nM. Regarding `Cn1nc(OCc2c(-c3ccc(Cl)cc3)noc2CO)cc1C(N)=O` [Example 102, 5-[3-(4-Chloro-phenyl)-5-hydroxymethyl-isoxazol-4-ylmethoxy]-2-methyl-2H-pyrazole-3-carboxylic acid amide], the Ki was 12.6 nM. The same measure for `Cc1onc(-c2ccc(F)cc2)c1CNc1cc(C(=O)N2CC3(COC3)C2)[nH]n1` [Example 158, (5-{[3-(4-Fluoro-phenyl)-5-methyl-isoxazol-4-ylmethyl]-amino}-2H-pyrazol-3-yl)-(2-oxa-6-aza-spiro[3.3]hept-6-yl)-methanone]: 22 nM; for `Cc1onc(-c2ccc(F)cc2)c1COc1cc(C(=O)NC(C)C)[nH]n1` [Example 12, 5-[3-(4-Fluoro-phenyl)-5-methyl-isoxazol-4-ylmethoxy]-2H-pyrazole-3-carboxylic acid isopropylamide]: 2.3 nM; for `Cc1onc(-c2ccc(F)cn2)c1COc1cc(C(=O)NN(C)C)[nH]n1` [Example 22, 5-[3-(5-Fluoro-pyridin-2-yl)-5-methyl-isoxazol-4-ylmethoxy]-2H-pyrazole-3-carboxylic acid N′,N′-dimethyl-hydrazide]: 6.7 nM. With `CCCCc1noc(C)c1COc1cc(C(=O)N[C@@H](C)CO)[nH]n1` (single isomer, unassigned) [Example 30], the Ki amounted to 25.2 nM. The same measure for `Cc1onc(-c2ccc(F)cn2)c1COc1cc(C(=O)NN(C)C)n(C)n1` [Example 82, 5-[3-(5-Fluoro-pyridin-2-yl)-5-methyl-isoxazol-4-ylmethoxy]-2-methyl-2H-pyrazole-3-carboxylic acid N′,N′-dimethyl-hydrazide]: 29.5 nM; for `CCCCc1noc(C)c1COc1cc(C(=O)NC(C)C)[nH]n1` [Example 32, 5-(3-Butyl-5-methyl-isoxazol-4-ylmethoxy)-2H-pyrazole-3-carboxylic acid isopropylamide]: 15.7 nM. Regarding `CCCCc1noc(CO)c1COc1cc(C(=O)NCC(F)(F)F)n(C)n1` [Example 112, 5-(3-Butyl-5-hydroxymethyl-isoxazol-4-ylmethoxy)-2-methyl-2H-pyrazole-3-carboxylic acid (2,2,2-trifluoro-ethyl)-amide], the Ki is 45.1 nM. On to `CCCCc1noc(C)c1COc1cc(C(=O)NC2CCOCC2)n(C)n1` [Example 88, 5-(3-Butyl-5-methyl-isoxazol-4-ylmethoxy)-2-methyl-2H-pyrazole-3-carboxylic acid (tetra-hydro-pyran-4-yl)-amide], for which the Ki is 8.7 nM.

Turning to `Cc1onc(-c2ccc(F)cn2)c1COc1cc(C(=O)NCCO)n(C)n1` [Example 83, 5-[3-(5-Fluoro-pyridin-2-yl)-5-methyl-isoxazol-4-ylmethoxy]-2-methyl-2H-pyrazole-3-carboxylic acid (2-hydroxy-ethyl)-amide], the Ki stood at 11 nM. Regarding `Cc1onc(-c2ccc(F)cc2)c1COc1cc(C(=O)NN2CCCCC2)n(C)n1` [Example 49, 5-[3-(4-Fluoro-phenyl)-5-methyl-isoxazol-4-ylmethoxy]-2-methyl-2H-pyrazole-3-carboxylic acid piperidin-1-ylamide], the Ki was determined as 19.3 nM. In the case of `Cc1onc(-c2ccc(F)cc2)c1COc1cc(C(=O)NC2CCOCC2)[nH]n1` [Example 13, 5-[3-(4-Fluoro-phenyl)-5-methyl-isoxazol-4-ylmethoxy]-2H-pyrazole-3-carboxylic acid (tetrahydro-pyran-4-yl)-amide], the Ki was 0.5 nM. As for `Cc1onc(-c2ccc(F)cn2)c1COc1cc(C(=O)NCCO)[nH]n1` [Example 20, 5-[3-(5-Fluoro-pyridin-2-yl)-5-methyl-isoxazol-4-ylmethoxy]-2H-pyrazole-3-carboxylic acid (2-hydroxy-ethyl)-amide], the Ki came out at 4 nM. In the case of `Cc1onc(-c2ccccc2)c1COc1cc(C(=O)NC2CCOCC2)[nH]n1` [Example 3, 5-(5-Methyl-3-phenyl-isoxazol-4-ylmethoxy)-2H-pyrazole-3-carboxylic acid (tetrahydro-pyran-4-yl)-amide], the Ki was 3.1 nM.

For the molecule `Cc1onc(-c2ccccc2)c1COc1cc(C(=O)NCCO)n(C)n1` [Example 42, 2-Methyl-5-(5-methyl-3-phenyl-isoxazol-4-ylmethoxy)-2H-pyrazole-3-carboxylic acid (2-hydroxy-ethyl)-amide], the Ki was 15.9 nM. The same measure for `Cn1nc(OCc2c(-c3ccc(Cl)cc3)noc2CO)cc1C(=O)NC1(C)COC1` [Example 108, 5-[3-(4-Chloro-phenyl)-5-hydroxymethyl-isoxazol-4-ylmethoxy]-2-methyl-2H-pyrazole-3-carboxylic acid (3-methyl-oxetan-3-yl)-amide]: 3.1 nM; for `Cc1onc(-c2ccccc2)c1COc1cc(C(=O)NC2CCOC2)[nH]n1` (racemic) [Example 4, Rac-5-(5-Methyl-3-phenyl-isoxazol-4-ylmethoxy)-2H-pyrazole-3-carboxylic acid (tetra-hydro-furan-3-yl)-amide]: 6.6 nM. With `O=C(NN1CCOCC1)c1cc(OCc2conc2-c2ccc(F)cn2)n[nH]1` [Example 25, 5-[3-(5-Fluoro-pyridin-2-yl)-isoxazol-4-ylmethoxy]-2H-pyrazole-3-carboxylic acid morpholin-4-ylamide] the figure was 13.6 nM. As for `Cc1onc(-c2ccc(F)cc2)c1/C=C/c1cc(C(=O)NC(C)(C)CO)n(C)n1` [Example 143, 5-{(E)-2-[3-(4-Fluoro-phenyl)-5-methyl-isoxazol-4-yl]vinyl}-2-methyl-2H-pyrazole-3-carboxylic acid (2-hydroxy-1,1-dimethyl-ethyl)-amide], the Ki was found to be 7.4 nM. With `CCCCc1noc(C)c1COc1cc(C(=O)NCC(F)(F)F)[nH]n1` [Example 31, 5-(3-Butyl-5-methyl-isoxazol-4-ylmethoxy)-2H-pyrazole-3-carboxylic acid (2,2,2-trifluoro-ethyl)-amide] the figure was 6.4 nM.
